Tests used:
[1] = target: T1, MK2 (Homo sapiens, UniProt P49137); test: MK2 degradation in human THP-1 monocytic cells (MSD, 24 h); assay type: cell-based; parameters: endogenous in cells; key to MK2 MSD THP-1 degradation 24 h GMean External Abs DC50: A (<0.001 μM); B (0.001-0.01 μM); C (0.01-0.1 μM); D (>0.1 μM); —: “-”=not tested or inactive; conditions: for Dmax: THP-1, THP-1 cells; for DC50: read-out: MK2 MSD THP-1 degradation 24 h GMean External Abs DC50
Method: MK2 Degradation in Human THP-1 Monoctyic Cells
(§1) The human monocytic cancer cell line THP-1 (ATCC (TIB-202)) was cultured in 96 well plates (Corning 3894) at a density of 200,000 cells per well in 100 microlitres in complete growth medium of RPMI 1640 (Gibco) pus 10% fetal Bovine Serum (Corning) and Penicillin/Streptomycin (SolarBio) at 37 degrees Celsius and 5% CO2. A serial dilution of each compound (usually 3 to 5 fold serial dilutions up to 10 separate concentration points) was added to individual wells from a 10 millimolar stock solution, at a background concentration of 0.1% DMSO and the cells were shaken at 600 rpm for 5 minutes and then were cultured for 24 hours at 37 degrees Celsius and 5% carbon dioxide. Separately, a custom MSD (MesoScaleDiscovery, L15XA-3) plate for detection of human MK2 was prepared by coating the plate with the commercial AbCam ab247272 reagent in 1×Phosphate Buffered Saline at 40 microlitres per well and incubated at 4 degrees Celsius overnight. The next day, the MSD plate was washed with 150 microlitres of Tween buffered saline, blocked with MSD blocking buffer (3% Blocker A from MSD), and washed again.
(§2) The cell plate was centrifuged at 3,200 g for 5 minutes and the supernatant was discarded and 100 microlitres of RIPA lysis buffer (containing proteinase inhibitors, Boston BioProducts BP-115D) was added and the plate was sealed and shaken on ice for 20 minutes. The plate was centrifuged as before and 70 microlitres of sample lysate was added to the MSD plates and they were shaken at room temperature for 1 hour at 600 rpm. The MSD plate was washed 3 times as before and then the primary MK2 detection antibody (Santa Cruz sc-100393) was added at a final concentration of 1 microgram per ml at 25 microlitres per well and shaken at room temperature for 1 hour at 600 rpm.
(§3) After 3 more washes, the secondary detection antibody (SULFO-Tag anti rabbit antibody R32AB-5) was added at a final concentration of 1 microgram per ml at 25 microlitres per well and shaken at room temperature for 1 hour at 600 rpm. After 3 more washes, the 1×MSD (diluted from 5× concentrate with water) reading buffer was added at 150 microlitres per well and read on the MSD instrument Meso Sector S 600.
(§4) The inhibition/degradation curves and DC50 values were plotted and calculated using XL Fit (version v5.3.1.3) using equation 201 and a 4 parameter logistic model whereby fit=(A+((B−A)/(1+((x/C)D))) where A is the Bottom and B is the Top and C is the IC50 and D is the slope and high C is the signal for the DMSO treated cells and Low C is the signal is the signal for the lysis buffer.

[2] = target: T1, MK2; test: MK2 degradation in human SW1353 cells (MSD, 24 h); assay type: cell-based; parameters: endogenous in cells; host or cells: SW-1353 (ATCC HTB-94); key to MK2 MSD SW1353 degradation 24 h GMean External Abs DC50: A (<0.001 μM); B (0.001-0.01 μM); C (0.01-0.1 μM); D (>0.1 μM); —: “-”=not tested or inactive; key to MK2 MSD SW 1353 24 h Dmax %: —: “-”=not tested or inactive; conditions: for Dmax: read-out: MK2 MSD SW 1353 24 h Dmax %; for DC50: read-out: MK2 MSD SW1353 degradation 24 h GMean External Abs DC50
Method: MK2 Degradation in Human SW1353 Cells
as §1, with “chondrocyte” for “monocytic”, “SW-1353 (ATCC(HTB-94))” for “THP-1 (ATCC (TIB-202))”, “Leibovitz's L-15 Medium” for “RPMI 1640”, “Celsius.” for “Celsius and 5% CO2.”, “Celsius.” for “Celsius and 5% carbon dioxide.”
as §2, §3, §4

T1 sequence (P49137 whole entry): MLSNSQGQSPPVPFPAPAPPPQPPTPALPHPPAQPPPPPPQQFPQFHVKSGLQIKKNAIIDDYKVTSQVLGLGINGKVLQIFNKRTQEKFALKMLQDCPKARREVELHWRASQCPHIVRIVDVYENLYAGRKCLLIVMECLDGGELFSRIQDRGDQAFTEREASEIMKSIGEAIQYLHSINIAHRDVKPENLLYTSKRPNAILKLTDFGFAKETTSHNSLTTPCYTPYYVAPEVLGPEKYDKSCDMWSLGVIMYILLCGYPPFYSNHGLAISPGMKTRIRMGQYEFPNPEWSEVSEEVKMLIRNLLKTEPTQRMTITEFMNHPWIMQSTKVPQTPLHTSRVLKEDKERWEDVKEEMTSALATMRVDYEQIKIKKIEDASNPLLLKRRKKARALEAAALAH

Cn1c(=O)n(C2CCC(=O)NC2=O)c2cccc(N3CC(N4CCN(c5ccc(-c6cc(-c7cc8c([nH]7)C7(CC7)CNC8=O)ccn6)cc5)CC4)C3)c21 (stereo not drawn) [Compound I-419]
Dmax [1]: > 75% | DC50 ([1]; THP-1 cells): < 1 nM | Dmax [2]: > 75% | DC50 [2]: < 1 nM

C[C@@H]1Cc2oc(-c3ccnc(-c4ccc(N5CCN(CC6CCN(c7ccc8c(c7)n(C)c(=O)n8C7CCC(=O)NC7=O)CC6)CC5)cc4)c3)cc2C(=O)N1 (stereo partly drawn) [Compound I-208]
Dmax [1]: < 50% | DC50 ([1]; THP-1 cells): > 100 nM | Dmax [2]: < 50% | DC50 [2]: > 100 nM

Cn1c(=O)n(C2CCC(=O)NC2=O)c2ccc(N3CCC(CN4CCN(c5ccc(-c6cc(-c7cc8c([nH]7)C7(CC7)CNC8=O)ccn6)c(F)c5)CC4)CC3)cc21 (stereo not drawn) [Compound I-218]
Dmax [1]: > 75% | DC50 ([1]; THP-1 cells): < 1 nM | Dmax [2]: > 75% | DC50 [2]: < 1 nM

Cn1c(=O)n(C2CCC(=O)NC2=O)c2cccc(N3CCC(CN4CCN(c5ccc(-c6cc(-c7cc8c([nH]7)CCNC8=O)ccn6)cn5)CC4)CC3)c21 (stereo not drawn) [Compound I-138]
Dmax [1]: > 75% | DC50 ([1]; THP-1 cells): < 1 nM | Dmax [2]: > 75% | DC50 [2]: < 1 nM

C[C@@H]1CNc2c(sc3ccc4nc(-c5ccc(N6CCN(CCC7CCN(c8cccc9c8n(C)c(=O)n9C8CCC(=O)NC8=O)CC7)CC6)cc5)ccc4c23)C(=O)N1 (stereo partly drawn) [Compound I-127]
Dmax [1]: > 75% | DC50 ([1]; THP-1 cells): 1 to 10 nM | Dmax [2]: > 75% | DC50 [2]: 1 to 10 nM

Cn1c(=O)n(C2CCC(=O)NC2=O)c2ccc(N3CCC(CN4CCN(c5ccc(-c6cc(-c7cc8c([nH]7)C7(CC7)CNC8=O)ccn6)cn5)CC4)CC3)cc21 (stereo not drawn) [Compound I-243]
Dmax [1]: 50 to 75% | DC50 ([1]; THP-1 cells): < 1 nM | Dmax [2]: > 75% | DC50 [2]: < 1 nM

C[C@@H]1CNc2c(sc3ccc4nc(-c5cccc(N6CCC(CN7CCN(c8ccc9c(c8)CN(C8CCC(=O)NC8=O)C9=O)CC7)CC6)c5)ccc4c23)C(=O)N1 (stereo partly drawn) [Compound I-304]
Dmax [1]: > 75% | DC50 ([1]; THP-1 cells): 1 to 10 nM | Dmax [2]: > 75% | DC50 [2]: 1 to 10 nM

C#Cc1cc(-c2ccc3c(ccc4sc5c(c43)NC[C@@H](C)NC5=O)n2)cc(N2CCN(CC3CCN(c4ccc5c(c4)n(C)c(=O)n5C4CCC(=O)NC4=O)CC3)CC2)c1 (stereo partly drawn) [Compound I-186]
Dmax [1]: > 75% | MK2 MSD THP-1 degradation 24 h GMean External Abs DC50 ([1]; THP-1 cells): — | MK2 MSD SW1353 degradation 24 h GMean External Abs DC50 [2]: — | Dmax [2]: > 75%

C[C@@H]1CNc2c(sc3ccc4nc(N5CCN(CC6CCN(c7cccc8c7n(C)c(=O)n8C7CCC(=O)NC7=O)CC6)CC5)ccc4c23)C(=O)N1 (stereo partly drawn) [Compound I-196]
Dmax [1]: > 75% | DC50 ([1]; THP-1 cells): 1 to 10 nM | MK2 MSD SW 1353 24 h Dmax % [2]: — | MK2 MSD SW1353 degradation 24 h GMean External Abs DC50 [2]: —

C[C@@H]1CNc2c(sc3ccc4nc(-c5cncc(C6CCN(CC7CCN(c8ccc9c(c8)n(C)c(=O)n9C8CCC(=O)NC8=O)CC7)CC6)c5)ccc4c23)C(=O)N1 (stereo partly drawn) [Compound I-165]
Dmax [1]: > 75% | DC50 ([1]; THP-1 cells): < 1 nM | Dmax [2]: > 75% | DC50 [2]: < 1 nM

Cn1c(=O)n(C2CCC(=O)NC2=O)c2cccc(CCCN3CCN(c4ccc(-c5cc(-c6cc7c([nH]6)C6(CCCC6)CNC7=O)ccn5)cc4)CC3)c21 (stereo not drawn) [Compound I-191]
Dmax [1]: 50 to 75% | DC50 ([1]; THP-1 cells): 10 to 100 nM | Dmax [2]: > 75% | DC50 [2]: 1 to 10 nM

Cn1c(=O)n(C2CCC(=O)NC2=O)c2cccc(CCN3CCN(c4ccc(-c5nccc(-c6cc7c([nH]6)C6(CC6)CNC7=O)c5F)cc4)CC3)c21 (stereo not drawn) [Compound I-431]
Dmax [1]: < 50% | DC50 ([1]; THP-1 cells): > 100 nM | Dmax [2]: 50 to 75% | DC50 [2]: 10 to 100 nM

Cn1c(=O)n(C2CCC(=O)NC2=O)c2cccc(CCCN3CCN(c4ccc(F)c(-c5cc(-c6cc7c([nH]6)CCNC7=O)ccn5)c4)CC3)c21 (stereo not drawn) [Compound I-133]
Dmax [1]: < 50% | DC50 ([1]; THP-1 cells): > 100 nM | Dmax [2]: < 50% | DC50 [2]: > 100 nM

Cn1c(=O)n(C2CCC(=O)NC2=O)c2ccc(N3CCC4(CC3)CC(N3CCN(c5cc(-c6cc7c([nH]6)C6(CC6)CNC7=O)ccn5)CC3)C4)cc21 (stereo not drawn) [Compound I-408]
Dmax [1]: < 50% | DC50 ([1]; THP-1 cells): > 100 nM | MK2 MSD SW 1353 24 h Dmax % [2]: — | DC50 [2]: > 100 nM

Cn1c(=O)n(C2CCC(=O)NC2=O)c2ccc(N3CC(CN4CCN(c5ccc(-c6cc(-c7cc8c(s7)CCNC8=O)ccn6)cc5)CC4)C3)cc21 (stereo not drawn) [Compound I-407]
Dmax [1]: < 50% | DC50 ([1]; THP-1 cells): > 100 nM | MK2 MSD SW 1353 24 h Dmax % [2]: — | DC50 [2]: > 100 nM

C[C@@H]1CNc2c(sc3ccc4nc(-c5cccc(N6CCN(CCCc7cccc8c7n(C)c(=O)n8C7CCC(=O)NC7=O)CC6)c5)ccc4c23)C(=O)N1 (stereo partly drawn) [Compound I-93]
Dmax [1]: > 75% | DC50 ([1]; THP-1 cells): < 1 nM | Dmax [2]: > 75% | DC50 [2]: 1 to 10 nM

C[C@@H]1CNc2c(sc3ccc4nc(-c5cncc(N6CCN(CCCc7ccc8c(c7)n(C)c(=O)n8C7CCC(=O)NC7=O)CC6)c5)ccc4c23)C(=O)N1 (stereo partly drawn) [Compound I-157]
Dmax [1]: > 75% | DC50 ([1]; THP-1 cells): < 1 nM | Dmax [2]: > 75% | DC50 [2]: < 1 nM

CN1CC2(CNC(=O)c3c2[nH]c2c3CCc3cnc(-c4ccc(CN5CCC(OCC#Cc6ccc7c(c6)n(C)c(=O)n7C6CCC(=O)NC6=O)CC5)cc4F)cc3-2)C1 (stereo not drawn) [Compound I-1]
Dmax [1]: < 50% | DC50 ([1]; THP-1 cells): > 100 nM | Dmax [2]: < 50% | DC50 [2]: > 100 nM

C[C@@H]1CNc2c(sc3ccc4nc(-c5ccc(N6CCN(CC7CCN(c8cccc9c8n(C)c(=O)n9C8CCC(=O)NC8=O)CC7)CC6)cc5)ccc4c23)C(=O)N1 (stereo partly drawn) [Compound I-126]
Dmax [1]: > 75% | DC50 ([1]; THP-1 cells): 1 to 10 nM | Dmax [2]: > 75% | DC50 [2]: 1 to 10 nM

Cc1cc(N2CCN(CCCc3ccc4c(c3)n(C)c(=O)n4C3CCC(=O)NC3=O)CC2)ncc1-c1ccc2c(ccc3sc4c(c32)NC[C@@H](C)NC4=O)n1 (stereo partly drawn) [Compound I-249]
Dmax [1]: 50 to 75% | DC50 ([1]; THP-1 cells): 1 to 10 nM | Dmax [2]: 50 to 75% | DC50 [2]: < 1 nM

COc1cc(-c2ccc3c(ccc4sc5c(c43)NC[C@@H](C)NC5=O)n2)c(C)cc1N1CCN(CC2CCN(c3ccc4c(c3)n(C)c(=O)n4C3CCC(=O)NC3=O)CC2)CC1 (stereo partly drawn) [Compound I-432]
Dmax [1]: 50 to 75% | DC50 ([1]; THP-1 cells): 10 to 100 nM | Dmax [2]: > 75% | DC50 [2]: < 1 nM

C[C@@H]1CNc2c(sc3ccc4nc(-c5ccnc(N6CCC(CN7CCN(c8ccc9c(c8)n(C)c(=O)n9C8CCC(=O)NC8=O)CC7)CC6)c5)ccc4c23)C(=O)N1 (stereo partly drawn) [Compound I-277]
Dmax [1]: > 75% | DC50 ([1]; THP-1 cells): < 1 nM | Dmax [2]: > 75% | DC50 [2]: < 1 nM

Cn1c(=O)n(C2CCC(=O)NC2=O)c2cccc(CCCCCCN3CCC4(CC3)CNC(=O)c3c4[nH]c4c3CCc3cnc(-c5ccccc5F)cc3-4)c21 (stereo not drawn) [Compound I-300]
Dmax [1]: < 50% | DC50 ([1]; THP-1 cells): > 100 nM | Dmax [2]: < 50% | DC50 [2]: > 100 nM

C[C@@H]1CNc2c(sc3ccc4nc(-c5cccc(N6CCN(CCCc7ccc8c(c7)n(C)c(=O)n8C7CCC(=O)NC7=O)CC6)c5)ccc4c23)C(=O)N1 (stereo partly drawn) [Compound I-118]
Dmax [1]: > 75% | DC50 ([1]; THP-1 cells): < 1 nM | Dmax [2]: > 75% | DC50 [2]: < 1 nM

Reference: patent US20230135894A1, “MK2 DEGRADERS AND USES THEREOF” (Kymera Therapeutics, Inc., priority 2021, published 2023)
